Counter-ions that a name gives are not always drawn.

The subject of the first assay is human primary melanocytes from skin type IV. The experiment in a line: total intracellular melanin production in human primary melanocytes (depigmentation). Type of assay: cell-based. The conditions noted are these: Naloxone 1 × 10^−4 M, 4 days, absorption of cell lysates at 475 nm, duplicate. Here is the method: Normal human melanocytes were cultured from freshly excised foreskin of skin type IV and treated with Dispase (ready-to-use, Roche) overnight at 4° C. Melanocytes dissociated from the epidermis were plated in culture flasks at high density using Melanocyte Growth Medium M2 (Promocell) supplemented with the corresponding growth factors (Promocell). These primary cells were cultivated under 100% humidity and 5% CO2 at 37° C. At the second passage, melanocytes were transferred to 6 well plates and allowed to reach 80% surface confluence.
Medium was renewed on day two of the experiment. Cells were harvested, counted and lysed in 1N NaOH using vigorous vortexing and a 30 minute incubation in an ultrasound bath. Melanin content was determined by measuring the absorption of cell lysates at 475 nm. Values were calibrated against a standard curve based on synthetic melanin (Sigma). The amount of melanin per 1 million cells is reported. Each treatment was run in duplicate.
As for `C=CCN1CC[C@]23c4c5ccc(O)c4O[C@H]2C(=O)CC[C@@]3(O)[C@H]1C5` [Naloxone], the “Melanin (μg/10^6 cells)” value was 1.05 μg/10^6 cells.

The assay is the same for the next values; noted with them: Naloxone 1 × 10^−4 M, 4 days, versus control.
As for `C=CCN1CC[C@]23c4c5ccc(O)c4O[C@H]2C(=O)CC[C@@]3(O)[C@H]1C5` [Naloxone], the “Reduction of mean melanin content” value was 86%.

Still in this assay, the particulars now being: Naloxone 5 × 10^−6 M, 4 days, versus control.
As for `C=CCN1CC[C@]23c4c5ccc(O)c4O[C@H]2C(=O)CC[C@@]3(O)[C@H]1C5` [Naloxone], the “Reduction of mean melanin content” value amounted to 78%.

Still in this assay, the particulars now being: result in words.
As for `C=CCN1CC[C@]23c4c5ccc(O)c4O[C@H]2C(=O)CC[C@@]3(O)[C@H]1C5` [Naloxone], the “intracellular melanin content compared to the control” value is reported as “dramatically reduces intracellular melanin content”.

The target of the next assay is T1, μ-opioid receptor (Homo sapiens, UniProt P35372).
T1 construct: purchased Perkin Elmer; host or cells: CHO cells (recombinant overexpression; membrane preparation)
T1 sequence (P35372 whole entry): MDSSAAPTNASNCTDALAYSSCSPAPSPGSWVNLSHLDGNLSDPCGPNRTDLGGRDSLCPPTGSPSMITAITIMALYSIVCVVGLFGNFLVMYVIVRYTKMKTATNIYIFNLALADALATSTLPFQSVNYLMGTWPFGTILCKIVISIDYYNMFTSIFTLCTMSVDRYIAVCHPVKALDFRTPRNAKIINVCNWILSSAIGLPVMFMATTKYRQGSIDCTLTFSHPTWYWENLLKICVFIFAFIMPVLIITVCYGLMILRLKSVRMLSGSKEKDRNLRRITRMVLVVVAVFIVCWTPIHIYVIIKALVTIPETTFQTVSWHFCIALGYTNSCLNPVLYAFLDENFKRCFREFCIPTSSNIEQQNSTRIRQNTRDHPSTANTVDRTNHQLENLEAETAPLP
Put plainly: μ-opioid receptor binding assay and GTP-recruitment assay (screening for antagonists). Format: biochemical. The conditions noted are these: [3H] DAMGO binding and DAMGO/GTP-Eu recruitment, membranes from CHO cells overexpressing the receptor; result in words. The procedure: […] DAMGO (Amersham) in 50 mM Tris HCl pH 7.4 (Sigma), 10 mM MgCl2 (Sigma) and 0.2% BSA (Sigma) in the presence of the negative control DMSO (Fluka) or the test compounds. The incubation mixture was transferred to filter plates (Perkin Elmer), the liquid aspirated through the application of a vacuum from the bottom and the plate washed twice with PBS (Invitrogen). The plate was allowed to dry, 35 μl of scintillation cocktail (Ultima Gold, Perkin Elmer) added, sealed and placed on a TopCount (Packard) for scintillation counting.
[…] The incubation mixture was transferred to filter plates (Perkin Elmer), the liquid aspirated through the application of a vacuum from the bottom and the plate washed twice with PBS (Invitrogen) and allowed to dry. Plates were read in an Analyst reader (LJL Biosystems).
As for `COc1c(O)cc(C)c(O)c1OC` [2,3-Dimethoxy-5-methylhydroquinone], the “identified as opioid receptor antagonist in the screening” value (shortened to “identified”) was “opioid receptor antagonists”.

Turning to `CC(=O)Oc1cc(-c2coc3cc(OC(C)=O)c(OC(C)=O)c(OC(C)=O)c3c2=O)cc(OC(C)=O)c1OC(C)=O` [Irigenol Hexaacetate], the “identified” value is given as “opioid receptor antagonists”. Regarding `O=C1/C(=C/c2ccc(O)c(O)c2)Oc2cc(O)cc(O)c21` [Aureusidin], the “identified” value is given as “opioid receptor antagonists”.

Regarding `O=c1c(-c2cc(O)c(O)c(O)c2)coc2cc(O)c(O)c(O)c12` [Irigenol ex Iris spp], the “identified” value is on record as “opioid receptor antagonists”. Turning to `COC1=C(OC)C(=O)C(C)=CC1=O` [2,3-Dimethoxy-5-methyl-1,4-benzoquinone], the “identified” value was “opioid receptor antagonists”. As for `COC1=C(OC)C(=O)C=CC1=O` [2,3-Dimethoxy-1,4-benzoquinone], the “identified” value was “opioid receptor antagonists”. In the case of `C/C1=C\CCC(C)(O)/C=C/C(C(C)C)CC/C(C)=C/CC1` (stereo not shown) [Isocembrol], the “identified” value is “opioid receptor antagonists”. Turning to `O=C(Oc1cc(O)cc2c1C[C@@H](OC(=O)c1cc(O)c(O)c(O)c1)[C@@H](c1cc(O)c(O)c(O)c1)O2)c1cc(O)c(O)c(O)c1` [Epigallocatechin 3,5-Digallate], the “identified” value is “opioid receptor antagonists”.

Take `O=c1c(O)c(-c2ccc(O)c(O)c2)oc2cc(O)c(O)c(O)c12` [Quercetagetin]: the “identified” value is on record as “opioid receptor antagonists”.

Take `COc1c(O)ccc(O)c1OC` [2,3-Dimethoxyhydroquinone]: the “identified” value was “opioid receptor antagonists”. The same measure, in the same setting: to `CC(C)=CCC(OC(=O)C=C(C)C)C1=CC(=O)c2c(O)ccc(O)c2C1=O` (stereo not drawn) [beta,beta-Dimethylacryl shikonin] belongs “opioid receptor antagonists”; to `O=c1c(O)c(-c2cc(O)c(O)c(O)c2)oc2cc(O)ccc12` [Robinetin], “opioid receptor antagonists”; to `Oc1cc(O)c2cc(O)c(-c3cc(O)c(O)c(O)c3)[o+]c2c1` [Delphinidin chloride], “opioid receptor antagonists”. Consider `O=C(/C=C/c1ccc(O)c(O)c1)c1ccc(O)c(O)c1O` [2′,3′,4′,3,4-Pentahydroxychalcone], for which the “identified” value is recorded as “opioid receptor antagonists”.

Staying with this assay, now noted: [3H] DAMGO binding and DAMGO/GTP-Eu recruitment, membranes from CHO cells overexpressing the receptor; result in words; Hydrochloride.
For `COc1cc2c3cc1Oc1c(OC)c(OC)cc4c1[C@@H](Cc1cccc(c1)Oc1ccc(c(O)c1)C[C@@H]3N(C)CC2)N(C)CC4` [Berbamine Hydrochloride], the “identified” value is “opioid receptor antagonists”.
